# From a melting point compilation (Tetko et al.; mined from patent text by program, amines drawn as free bases though some values may be those of a salt)
row,Structure (SMILES),melting point [°C]
1,COCCOC(=O)Nc1cc(N2CC=CCC2)nc2nc(=O)on12,195 to 196
2,N=c1cc(NCCCCc2c[nH]cn2)ccs1,209 to 211
3,Cc1cc(C)nc(OC(C(=O)O)C(C)(C)C)n1 (stereo not drawn),167 to 169
4,Cc1cccc(C2=CCN(c3ccc(F)nn3)CC2)c1,105
5,O=C(NC1CCCCCC1)c1cccc(C(=O)NC2CCCCCC2)c1,285 to 286
6,CCCCc1nc2c(N)nc3cccnc3c2n1CCN,175 to 176
7,COC1(c2cc(F)cc(OCc3ccc4ccccc4c3)c2)CCOCC1,109 to 111
8,N[C@@H](Cc1cccc(OCC(F)(F)F)c1)[C@H](O)c1ccc(F)cc1 (racemic),94 to 95
9,CCOC(=O)COc1ccc2[nH]ccc2c1,74 to 77
10,O=c1c(Cl)c(OCc2ccc(Cl)cc2)cnn1CCCBr,83 to 87
11,O=C(O)CCCNC(=O)NCCCCC1CCSS1 (stereo not drawn),94 to 99
12,COC(=O)c1cc(C(C)C)c(OS(=O)(=O)NC(=O)Cc2c(C(C)C)cc(C(C)C)cc2C(C)C)c(C(C)C)c1,144 to 146
13,COc1cc2[nH]c(C)c(CCN3CCN(NC(=O)c4ccc(F)cc4)CC3)c2cc1OC,116 to 119
14,O=C(O)c1cn(C2COC2)c2cc(F)c(F)cc2c1=O,255 to 256
15,COc1ccc(CCCOc2c(C)cc(-c3noc(C)n3)cc2C)cn1,71 to 73
16,Cc1nnc(CCl)n1-c1ccc(Cl)cc1C(=O)c1ccccc1,139 to 140
17,ClCc1coc(C2=Cc3ccccc3CC2)n1,73 to 74
18,Cc1cc(SCCC#Cc2ccc(C(F)(F)F)cc2)ccc1OCC(=O)O,129 to 130

# The remaining lines, values ahead:
row,melting point [°C],Structure (SMILES)
1,194 to 196,CCn1cc(C(=O)NCc2ccc(Cl)cc2)c(=O)c2cc(CN3CCOCC3)sc21
2,142 to 144,C#CCc1c(-c2ccccc2)nc(C)n(C)c1=O
3,129 to 131,CC(O)(c1ccc(OCc2ccc3ccccc3n2)cc1)c1ccc(OCc2ccc3ccccc3n2)cc1
4,65 to 66,O=C(c1ccc(Cl)cc1)C1(c2ccccc2Cl)CO1 (stereo not drawn)
5,131 to 133,O=C1OC(=O)C2=C1SCC(c1ccccc1)S2 (stereo not drawn)
6,214 to 215,O=C(CN1C(=O)c2ccccc2C1=O)NCc1nncn1-c1ccc(Cl)cc1C(=O)c1ccccc1
7,173 to 175,O=C(c1ccc(Cc2c(Cl)cc(NN=Cc3ccccc3)cc2Cl)cc1)c1cnc(Cl)c(Cl)c1
8,234 to 235,Cn1c(C(=O)N[C@H]2CCCC[C@H]2C(=O)N[C@@H](CCC(N)=O)C(N)=O)cc2ccccc21
9,158,COc1ccc(CN=C(Cc2ccccc2)N2CC3C(=O)CCC(c4ccccc4)(c4ccccc4)C3C2)cc1 (stereo not drawn)
10,160 to 162,O=C1C(c2ccc(O)cc2)=C(Br)c2c(O)cc(O)cc21
11,209 to 210,Cc1ccc(-c2nnc3cc(-c4ccccc4)c(OCc4ncn(C)n4)nn23)s1
12,231 to 232,CC1(CN2CCN(c3cccccc3=O)CC2)NC(=O)NC1=O (stereo not drawn)
13,83 to 85,CCCCCc1c(C(C)C)nc(C(C)C)c(CO)c1-c1ccc(Cl)cc1
14,195 to 198,CC(=O)OCCN(CCOC(C)=O)c1ccc(C=CC=Cc2ccc([N+](=O)[O-])cc2)cc1
15,170 to 173,Cn1cc(C(=O)c2ccccc2)c2c(Nc3cccc(N)c3)ncnc21
16,190 to 192,Cc1ccc(-n2ncc(-c3ccc(S(C)(=O)=O)cc3)cc2=O)cc1
17,188,Cn1c(CC(=O)O)ccc1C(=O)c1ccc(Br)cc1
18,82 to 84,CCC(=O)C(CCCCCCOc1ccc(OCc2ccccc2)cc1)C(=O)CC
19,208 to 210,COc1ccc(-c2c(Cl)ncn2-c2ccc(S(=O)(=O)NC(C)(C)C)cc2)cc1F
20,264 to 267,O=C1c2ccccc2C(=O)N1CC(=O)N1c2ccccc2N(Cc2ccc(O)cc2)C(=O)[C@H]2CCC[C@H]21 (relative stereo)
